{"source": "paper PMC5095062", "about": "“The novel choline kinase inhibitor ICL-CCIC-0019 reprograms cellular metabolism and inhibits cancer cell growth” (Oncotarget, 2016)", "key": {"[1]": {"system": "NCI-60 panel of cell lines", "assay": "NCI-60 screen (whole panel)", "assay_type": "cell-based", "details": "Homo sapiens", "description": "The compound was then screened against a larger panel of cancer cell lines of diverse histopathologic origin, the NCI-60 screen. […] Mining of publicly available Cancer Genome Atlas (TCGA) expression data identified CHKA amplification and/or mRNA upregulation in 11% of breast, 5–10% of lung, 8% of ovarian, 7% of colorectal and 5% of prostate cancers. Furthermore, CHKA mRNA expression is higher in multiple tumor types compared to normal tissue (Supplementary Figure S1D). The gene was rarely mutated or deleted (0–2.5% mutation rate and < 1% deletion among all tested cancer types). The consistently high expression in a wide variety of tumor types highlights the relevance of CHKA in malignancy and role as a therapeutic target."}, "HCT116 cells [2]": {"system": "HCT116 cells", "assay": "Cell membrane integrity assay (LDH release)", "assay_type": "cell-based, human", "details": "1–25 μM, 4 h", "protocol": "Cell membrane integrity was assessed using a fluorescent kit measuring lactate dehydrogenase (LDH) release (CytoTox-ONETM, Promega) according to manufacturer's instructions."}, "HCT116 cells [3]": {"system": "HCT116 cells", "assay": "[3H]choline uptake in HCT116 cells", "assay_type": "cell-based", "details": "Homo sapiens, HCT-116", "protocol": "(§1) Enzymatic kinase activity, [^3H]choline to [^3H]PCho conversion and growth inhibition assays was conducted as previously described. [^3H]choline incorporation into soluble and lipid fractions was determined by a pulse-chase experiment. HCT116 cells were seeded at a density of 3 × 10^5 cell per well into 12-well plates and incubated overnight. Cells were treated with 1 or 10 μM ICL-CCIC-0019 for 1 h and pulsed in presence of inhibitor with 18.5 kBq/mL [^3H]choline chloride in 500 μL for 1 additional h. Cells were briefly rinsed with RPMI and incubated with fresh, non-radioactive medium for 6 h. Metabolites were extracted as described elsewhere, but additionally the radioactivity of the choline-containing and chloroform (lipid-containing) fractions was measured. Uptake of radiolabeled metabolite-tracers was measured as described elsewhere. Antiproliferative activity was measured after 72 h continuous exposure to inhibitors by sulforhodamine B (SRB) assay as described elsewhere. Apoptosis was determined using Caspase 3/7 Glo assay (Promega) according to the manufacturer's instructions."}, "HCT116 xenografts [4]": {"system": "HCT116 xenografts", "assay": "Kinetic modeling of [18F]-D4-FCH PET data", "assay_type": "in vivo, BALB/c nude mice", "description": "We employed kinetic modeling to further characterize ICL-CCIC-0019-mediated choline kinase inhibition in vivo. Whereas normalized tissue uptake values reflect tracer concentration in a 3-dimensional region of interest, kinetic modeling accounts for tissue uptake relative to plasma. A two-tissue irreversible compartmental model, as previously reported, was employed with the hypothesis that k3 would represent the rate by which the tracer is phosphorylated by choline kinase, (Supplementary Figure S2C). Although this enzymatic reaction is in principle reversible, it was assumed that the high dependency of cancer cells to incorporate choline made it unlikely that catalytic hydrolysis of PCho prevails. Best fits and more physiological parameters were obtained with a 3k (excluding k4) instead of a 4k model. […] In all examined tissues, the blood volume Vb decreased initially after treatment (Supplementary Figure S2D). These perfusion deficits were more pronounced and persistent in tumor compared to liver and kidney. To rule out that these kinetic changes are solely due to choline transport inhibition, we analyzed the choline metabolites of [^18F]-D4-FCH in HCT116 cells treated with ICL-CCIC-0019. As expected for CHKA inhibition, ICL-CCIC-0019 decreased the [^18F]-D4-PCho peak, changing the relative ratio of [^18F]-D4-Cho:[^18F]-D4-PCho from 72:28 in the vehicle control to 87:13 in the treatment group (Supplementary Figure S2E–S2F).\nKinetic analysis of PET data was performed applying a standard two-tissue irreversible compartmental model described in detail elsewhere."}, "HCT116 xenografts [5]": {"system": "HCT116 xenografts", "assay": "[18F]-D4-FCH PET imaging", "assay_type": "in vivo, BALB/c nude mice", "description": "Mice were anesthetized through isoflurane inhalation and scanned on a Siemens Multimodality Inveon small animal PET-CT scanner for [^18F]-D4-FCH PET studies using HCT116 xenografts. Low dose CT scans were first acquired (80 kVp, 0.5 mA, 220 degree rotation, 600 ms per degree exposure time, 80 μm reconstruction pixel size) for PET attenuation correction and anatomical reference. PET images were acquired following a bolus i.v. injection of approximately 3.7 MBq tracer in the tail vein. Dynamic emission scans were acquired in list mode format over 60 minutes. Data were sorted into 0.5 mm sinogram bins and 19 time frames for image reconstruction by filtered back projection (4 × 15 seconds, 4 × 60 seconds and 11 × 300 seconds). The Siemens Inveon Research Workplace software was used for visualization of radiotracer uptake. To define 3-dimensional regions of interest (ROI), 30 to 60-minute cumulative images of the dynamic were employed. Arterial input function was estimated by drawing ROIs over the center of the heart cavity using cumulative images from 0.25 to 2 minutes of the dynamic series, a method previously validated for use in rodents. The count densities were averaged for all ROIs at each time point to obtain time versus radioactivity curves (TAC). Tumor TACs were normalized to injected dose measured by a VDC-304 dose calibrator (Veenstra Instruments) and normalized uptake was expressed as percentage injected dose per mL tissue (NUV; %ID/mL)."}, "2 normal cell lines": {"system": "2 normal cell lines", "assay": "Antiproliferative activity (SRB), initial cell line screen", "assay_type": "cell-based", "details": "Homo sapiens; normal cells", "protocol": "as §1"}, "8 cancer cell lines": {"system": "8 cancer cell lines", "assay": "Antiproliferative activity (SRB), initial cell line screen", "assay_type": "cell-based", "details": "Homo sapiens", "protocol": "as §1"}, "HCT116 cells [6]": {"system": "HCT116 cells", "assay": "Antiproliferative activity (SRB)", "assay_type": "cell-based", "details": "Homo sapiens, HCT-116", "protocol": "as §1"}, "[7]": {"target": "recombinant human Δ49N CHKA2 (Homo sapiens, UniProt P35790)", "sequence (P35790 50-457 limits assumed, stated change not applied)": "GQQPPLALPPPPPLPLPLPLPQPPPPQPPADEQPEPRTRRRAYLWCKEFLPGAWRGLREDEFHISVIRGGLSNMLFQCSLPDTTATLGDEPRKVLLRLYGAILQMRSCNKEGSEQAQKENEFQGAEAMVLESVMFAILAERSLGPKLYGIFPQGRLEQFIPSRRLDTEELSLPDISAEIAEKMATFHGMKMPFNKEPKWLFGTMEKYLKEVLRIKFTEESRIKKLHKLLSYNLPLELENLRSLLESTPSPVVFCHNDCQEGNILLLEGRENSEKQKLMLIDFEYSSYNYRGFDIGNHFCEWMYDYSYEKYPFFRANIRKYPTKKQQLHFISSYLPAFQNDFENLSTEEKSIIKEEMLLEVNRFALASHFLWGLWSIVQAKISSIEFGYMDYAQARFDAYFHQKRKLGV", "assay": "Enzymatic inhibition of choline kinase activity", "assay_type": "biochemical", "protocol": "as §1"}, "HCT116 cells [8]": {"system": "HCT116 cells", "assay": "Reactive oxygen species assay", "assay_type": "cell-based, human", "details": "10 μM", "protocol": "For ROS measurements, cells were seeded in 96-well plates and treated with indicated ICL-CCIC-0019 (10 μM), pro- and antioxidants (0.25% H2O2 and 5 mM N-acetyl cysteine, NAC; all from Sigma-Aldrich) for indicated times. C400 (Life Technologies) was added at a final concentration of 50 μM and incubated at 37°C for 15 minutes and fluorescence quantified."}, "HCT116 cells [9]": {"system": "HCT116 cells", "assay": "[3H]acetate uptake", "assay_type": "cell-based, human", "protocol": "as §1"}}, "note": "Where two headings read alike, the source gives them in different places."}
{"smiles": "CN(C)c1cc[n+](CCCCCCCCCCCC[n+]2ccc(N(C)C)cc2)cc1", "note": "[ICL-CCIC-0019]", "values": [{"measurement": "GI50", "setting": "[1]; read-out: GI50 range across all cell lines", "result": "38.9 to 16200", "unit": "nM"}, {"measurement": "GI50", "setting": "[1]; read-out: median GI50 across all cell lines", "result": 1120, "unit": "nM"}, {"measurement": "LDH concentration in the supernatant", "setting": "HCT116 cells [2]", "result": "did not elevate LDH concentration"}, {"measurement": "EC50", "setting": "HCT116 cells [3]", "result": "980 ± 240", "unit": "nM"}, {"measurement": "decrease of tumor K1 compared to control", "setting": "HCT116 xenografts [4]; 24 hours", "result": 73, "unit": "%"}, {"measurement": "decrease of tumor K1 compared to control", "setting": "HCT116 xenografts [4]; 48 hours", "result": 75, "unit": "%"}, {"measurement": "macro parameter Ki (net irreversible uptake rate) in tumor", "setting": "HCT116 xenografts [4]; 48 hours", "result": "significantly decreased"}, {"measurement": "[18F]-D4-FCH tumor uptake AUC0–60", "setting": "HCT116 xenografts [5]; 6 hours after 10 mg/kg i.p. single dose", "result": "187.7 (%ID/mL)*min"}, {"measurement": "[18F]-D4-FCH tumor uptake AUC0–60", "setting": "HCT116 xenografts [5]; 24 hours after 10 mg/kg i.p. single dose", "result": "145.8 (%ID/mL)*min"}, {"measurement": "[18F]-D4-FCH tumor uptake AUC0–60", "setting": "HCT116 xenografts [5]; 48 hours after 10 mg/kg i.p. single dose", "result": "139.4 (%ID/mL)*min"}, {"measurement": "GI50", "setting": "2 normal cell lines", "result": "30 to 120", "unit": "µM"}, {"measurement": "GI50", "setting": "8 cancer cell lines; read-out: GI50 range", "result": "380 to 2700", "unit": "nM"}, {"measurement": "GI50", "setting": "8 cancer cell lines; read-out: mean GI50", "result": 1090, "unit": "nM"}, {"measurement": "GI50", "setting": "HCT116 cells [6]", "result": 380, "unit": "nM"}, {"measurement": "potency compared with MN58B", "setting": "[7]; CHKA inhibition", "result": "equipotent to MN58B"}, {"measurement": "potency relative to CK37 (times more potent)", "setting": "[7]; CHKA inhibition", "result": "> 500", "unit": "times"}, {"measurement": "IC50", "setting": "[7]; read-out: IC50 of CHKA activity", "result": "270 ± 60", "unit": "nM"}, {"measurement": "formation of reactive oxygen species", "setting": "HCT116 cells [8]", "result": "not accompanied by formation of reactive oxygen species"}, {"measurement": "increase of acetate uptake", "setting": "HCT116 cells [9]", "result": 10, "unit": "fold"}]}
